Assay results reported in patent US20030165586A1, “Anti-angiogenic composition comprising ticlopidine and gingko biloba extract” (priority 2003, published 2003).

Assays:
[1] = test system: formation of blood vessels in Matrigel; test: Matrigel plug assay (hemoglobin in bFGF/heparin Matrigel implanted in mice); format: in vivo, C57BL/6 female mice; settings: 0.65 mg/mouse orally twice per day for four days; control = 100
Experimental: 0.4 ml portion of Matrigel each mixed with 50 ng/ml of basic fibroblast growth factor (bFGF) and 50 units of heparin were implanted by subcutaneous injection in 5-week-old C57BL/6 female mice, and a mixture of 0.65 mg ticlopidine and 0.4 mg Ginkgo biloba extract was orally administrated to each mouse twice per day for four days. Then each mouse was sacrificed and the Matrigel was excised. For comparison, the procedure was repeated using ticlopidine or Ginkgo biloba extract alone. The formation of blood vessels in Matrigel was tested by measuring the amount of hemoglobin (Hb) in the Matrigel using the Drabkin reagent kit (Sigma Chemical Co., St. Louise, Mich., USA) which contained standards of known amounts of Hb.

[2] = test system: Human umbilical vein endothelial cells (HUVECs); test: Tube formation assay of HUVEC in Matrigel; format: cell-based; settings: 50 μM ticlopidine alone; total tube area per well relative to control (100)
Experimental: The tube formation assay was performed as follows: 48-well plates were coated with 0.2 ml of Matrigel (BD Bioscience, Bedford, Mass., USA) and incubated at 37° C. for 1 hr. 4˜6×10^4 HUVECs resuspended in 0.4 ml of M199 medium were added to each well. Ticlopidine (Sigma Chemical Co., USA) and Ginkgo biloba extract (Hwa Il Pharmaceutical Co., LTD, Korea), a standardized extract that contained 24% flavonoid glycosides and 6% terpenoids, were added to the Matrigel. Final concentration of ticlopidine and Ginkgo biloba extract were 25 μM and 5 μg/ml, respectively. As a control, the procedure was repeated without added ticlopidine and Ginkgo biloba extract. Comparative runs were also conducted by the same procedure using ticlopidine alone (comparative run 1) or only with Ginkgo biloba extract (comparative run 2). The extent of tube formation was determined by measuring the total tube area per well relative to that of the control using image analysis program Image-Pro Pluso (Media Cybernetics, USA).

Structure (SMILES): Clc1ccccc1CN1CCc2sccc2C1 [Ticlopidine, 5-[(2-chlorophenyl)methyl]-4,5,6,7-tetrahydrothieno[3,2-C]pyridine]
- Hemoglobin (%) [1]: 95%
- Total Tube Area % [2]: 91%
